These are literature values, as cited in PMC3530844 (ACS medicinal chemistry letters, 2012).

For data set [1], the target named is hD2 receptors (Homo sapiens, UniProt P14416). The note with it: [35S]GTPγS; ref Ghosh et al., J. Med. Chem. 2010, 53, 2114-2125. Background: GTPγS is a poorly hydrolysed GTP analogue; its binding reports G protein activation.
Data set [2] has as its target hD3 receptors (Homo sapiens, UniProt P35462). The note with it: [35S]GTPγS; ref Ghosh et al., J. Med. Chem. 2010, 53, 2114-2125.

Each structure is given as a SMILES string.

hD3 receptors, sequence (P35462 whole entry): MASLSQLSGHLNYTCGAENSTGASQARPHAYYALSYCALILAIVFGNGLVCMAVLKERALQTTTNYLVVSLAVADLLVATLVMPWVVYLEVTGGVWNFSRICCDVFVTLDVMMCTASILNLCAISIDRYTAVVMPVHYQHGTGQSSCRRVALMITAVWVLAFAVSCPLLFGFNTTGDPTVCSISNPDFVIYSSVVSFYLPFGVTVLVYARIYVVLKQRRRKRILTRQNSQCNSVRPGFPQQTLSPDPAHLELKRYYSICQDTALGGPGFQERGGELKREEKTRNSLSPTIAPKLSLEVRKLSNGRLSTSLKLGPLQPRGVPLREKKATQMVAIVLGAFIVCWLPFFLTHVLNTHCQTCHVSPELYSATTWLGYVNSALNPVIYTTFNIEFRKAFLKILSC
hD2 receptors, sequence (P14416 whole entry): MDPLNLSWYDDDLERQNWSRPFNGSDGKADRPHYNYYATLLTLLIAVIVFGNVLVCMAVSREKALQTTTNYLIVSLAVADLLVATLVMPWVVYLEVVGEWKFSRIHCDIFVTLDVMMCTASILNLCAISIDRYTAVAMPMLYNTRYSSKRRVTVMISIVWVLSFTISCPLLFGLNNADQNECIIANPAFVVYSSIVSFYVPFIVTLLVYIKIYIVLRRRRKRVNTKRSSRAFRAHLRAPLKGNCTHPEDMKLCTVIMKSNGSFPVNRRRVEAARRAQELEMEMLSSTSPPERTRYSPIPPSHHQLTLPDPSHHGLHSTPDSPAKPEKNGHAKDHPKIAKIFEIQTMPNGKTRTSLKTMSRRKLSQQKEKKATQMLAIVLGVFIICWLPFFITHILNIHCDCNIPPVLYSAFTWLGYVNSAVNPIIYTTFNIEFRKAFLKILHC

In the case of `CCCN(CCC)CCc1cccc2c1CC(=O)N2` [Ropinirole], the “%Emax hCHO-D2” value in data set [1] is 74 ± 0.9%. In data set [2], the “%Emax hCHO-D3” value was 67 ± 8%.
